Biological target: T1, MAGL (Homo sapiens, UniProt Q99685)
T1 sequence (Q99685 1-303): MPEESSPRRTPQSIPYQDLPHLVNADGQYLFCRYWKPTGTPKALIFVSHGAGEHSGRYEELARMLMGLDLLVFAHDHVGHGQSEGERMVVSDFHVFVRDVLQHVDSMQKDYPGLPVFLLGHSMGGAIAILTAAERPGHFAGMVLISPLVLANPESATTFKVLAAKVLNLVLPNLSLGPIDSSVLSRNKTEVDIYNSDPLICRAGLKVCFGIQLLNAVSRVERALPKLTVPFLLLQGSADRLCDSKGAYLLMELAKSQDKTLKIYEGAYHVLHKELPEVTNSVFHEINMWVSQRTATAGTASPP
Assay: 2-AG assay: MAGL inhibitory activity by hydrolysis of 2-arachidonoylglycerol to arachidonic acid, mass spectrometry
Assay type: biochemical
Conditions: 2-AG assay (values marked [b])
Outline: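 Hydrolysis of 8 μM 2-arachidonoylglycerol by […] was run for 30 min at RT after a 15 min compound preincubation, in Tris/EDTA/Tween buffer. Test compounds spanned […]. The product was measured by online SPE-MS/MS (transitions 303.1→259.1 and 311.1→267.0), and activity was derived from the arachidonic acid/d8-arachidonic acid signal ratio.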

SMILES	IC50
COc1cc(C(=O)N2CCN(c3nc4nc(Cl)ccc4o3)CC2)cnc1OCC1(C(F)(F)F)CC1 [Example 138, [4-(5-chlorooxazolo[4,5-b]pyridin-2-yl)piperazin-1-yl]-[5-methoxy-6-[[1-(trifluoromethyl)cyclopropyl]methoxy]-3-pyridyl]methanone]	183 nM
Cc1ccc2oc(N3CCN(C(=O)c4ccc(OCC5(C(F)(F)F)CC5)c(C)n4)CC3)nc2n1 [Example 139, [4-(5-methyloxazolo[4,5-b]pyridin-2-yl)piperazin-1-yl]-[6-methyl-5-[[1-(trifluoromethyl)cyclopropyl]methoxy]-2-pyridyl]methanone]	387 nM
Cc1nc(C(=O)N2CCN(c3nc4nc(Cl)ccc4o3)CC2)ccc1OCC1(C(F)(F)F)CC1 [Example 140, [4-(5-chlorooxazolo[4,5-b]pyridin-2-yl)piperazin-1-yl]-[6-methyl-5-[[1-(trifluoromethyl)cyclopropyl]methoxy]-2-pyridyl]methanone]	326 nM
Cc1ccc2oc(N3CCN(C(=O)c4cnc(OCC5(C)CC5)c(F)c4)CC3)nc2n1 [Example 148, (5-fluoro-6-((1-methylcyclopropyl)methoxy)pyridin-3-yl)(4-(5-methyloxazolo[4,5-b]pyridin-2-yl)piperazin-1-yl)methanone]	226 nM
CC1(COc2ncc(C(=O)N3CCN(c4nc5nc(Cl)ccc5o4)CC3)cc2Cl)CC1 [Example 149, (5-chloro-6-((1-methylcyclopropyl)methoxy)pyridin-3-yl)(4-(5-chlorooxazolo[4,5-b]pyridin-2-yl)piperazin-1-yl)methanone]	20 nM
Cc1ccc2oc(N3CCN(C(=O)c4cnc(OCC5(C(F)(F)F)CC5)c(F)c4)CC3)nc2n1 [Example 150, (5-fluoro-6-((1-(trifluoromethyl)cyclopropyl)methoxy)pyridin-3-yl)(4-(5-methyloxazolo[4,5-b]pyridin-2-yl)piperazin-1-yl)methanone]	46 nM
Cc1ccc2oc(N3CCN(C(=O)c4cnc(OCC5(C(F)(F)F)CC5)c(OCC5(C(F)(F)F)CC5)c4)CC3)nc2n1 [Example 151, (5,6-bis((1-(trifluoromethyl)cyclopropyl)methoxy)pyridin-3-yl)(4-(5-methyloxazolo[4,5-b]pyridin-2-yl)piperazin-1-yl)methanone]	55 nM
O=C(c1cnc(OCC2(C(F)(F)F)CC2)c(Cl)c1)N1CCN(c2nc3nc(Cl)ccc3o2)CC1 [Example 152, (5-chloro-6-((1-(trifluoromethyl)cyclopropyl)methoxy)pyridin-3-yl)(4-(5-chlorooxazolo[4,5-b]pyridin-2-yl)piperazin-1-yl)methanone]	15 nM
Cc1cc(C(=O)N2CCN(c3nc4nc(Cl)ccc4o3)CC2)cnc1OCC1(C(F)(F)F)CC1 [Example 153, (4-(5-chlorooxazolo[4,5-b]pyridin-2-yl)piperazin-1-yl)(5-methyl-6-((1-(trifluoromethyl)cyclopropyl)methoxy)pyridin-3-yl)methanone]	10 nM
O=C(c1cnc(OCC2(C(F)(F)F)CC2)c(C(F)(F)F)c1)N1CCN(c2nc3nc(Cl)ccc3o2)CC1 [Example 154, (4-(5-chlorooxazolo[4,5-b]pyridin-2-yl)piperazin-1-yl)(5-(trifluoromethyl)-6-((1-(trifluoromethyl)cyclopropyl)methoxy)pyridin-3-yl)methanone]	8 nM
Cc1cc(C(=O)N2CCN(c3nc4nc(Cl)ccc4o3)CC2)cnc1OCC1CC1 [Example 155, (4-(5-chlorooxazolo[4,5-b]pyridin-2-yl)piperazin-1-yl)(6-(cyclopropylmethoxy)-5-methylpyridin-3-yl)methanone]	90 nM
Cc1cc(C(=O)N2CCN(c3nc4nc(Cl)ccc4o3)CC2)cnc1OCC1(C)CC1 [Example 156, (4-(5-chlorooxazolo[4,5-b]pyridin-2-yl)piperazin-1-yl)(5-methyl-6-((1-methylcyclopropyl)methoxy)pyridin-3-yl)methanone]	21 nM
Cc1cc(C(=O)N2CCN(c3nc4nc(Cl)ccc4o3)CC2)cnc1OCC1(C)COC1 [Example 157, (4-(5-chlorooxazolo[4,5-b]pyridin-2-yl)piperazin-1-yl)(5-methyl-6-((3-methyloxetan-3-yl)methoxy)pyridin-3-yl)methanone]	317 nM
Cc1cc(C(=O)N2CCN(c3nc4nc(Cl)ccc4o3)CC2)cnc1OCC1(C)CC1(F)F (centres unmarked) [Example 158, (4-(5-chlorooxazolo[4,5-b]pyridin-2-yl)piperazin-1-yl)(6-((2,2-difluoro-1-methylcyclopropyl)methoxy)-5-methylpyridin-3-yl)methanone]	11 nM
CCC1(COc2ncc(C(=O)N3CCN(c4nc5nc(Cl)ccc5o4)CC3)cc2C)COC1 [Example 159, (4-(5-chlorooxazolo[4,5-b]pyridin-2-yl)piperazin-1-yl)(6-((3-ethyloxetan-3-yl)methoxy)-5-methylpyridin-3-yl)methanone]	117 nM
COCC1(COc2ncc(C(=O)N3CCN(c4nc5nc(Cl)ccc5o4)CC3)cc2C)CC1 [Example 160, (4-(5-chlorooxazolo[4,5-b]pyridin-2-yl)piperazin-1-yl)(6-((1-(methoxymethyl)cyclopropyl)methoxy)-5-methylpyridin-3-yl)methanone]	295 nM
Cc1cc(C(=O)N2CCN(c3nc4nc(Cl)ccc4o3)CC2)cnc1OCC1(F)COC1 [Example 161, (4-(5-chlorooxazolo[4,5-b]pyridin-2-yl)piperazin-1-yl)(6-((3-fluorooxetan-3-yl)methoxy)-5-methylpyridin-3-yl)methanone]	906 nM
Cc1cc(C(=O)N2CCN(c3nc4nc(Cl)ccc4o3)CC2)cnc1OCC1(CC#N)CC1 [Example 162, 2-(1-(((5-(4-(5-chlorooxazolo[4,5-b]pyridin-2-yl)piperazine-1-carbonyl)-3-methylpyridin-2-yl)oxy)methyl)cyclopropyl)acetonitrile]	230 nM
Cc1cc(C(=O)N2CCN(c3nc4nc(Cl)ccc4o3)CC2)cnc1OCC1(C#N)CC1 [Example 163, 1-(((5-(4-(5-chlorooxazolo[4,5-b]pyridin-2-yl)piperazine-1-carbonyl)-3-methylpyridin-2-yl)oxy)methyl)cyclopropane-1-carbonitrile]	677 nM
Cc1cc(C(=O)N2CCN(c3nc4nc(Cl)ccc4o3)CC2)cnc1OCC1(C#N)COC1 [Example 164, 3-(((5-(4-(5-chlorooxazolo[4,5-b]pyridin-2-yl)piperazine-1-carbonyl)-3-methylpyridin-2-yl)oxy)methyl)oxetane-3-carbonitrile]	1540 nM
Cc1cc(C(=O)N2CCN(c3nc4nc(Cl)ccc4o3)CC2)cnc1OCc1cc(F)cc(C#N)c1 [Example 165, 3-(((5-(4-(5-chlorooxazolo[4,5-b]pyridin-2-yl)piperazine-1-carbonyl)-3-methylpyridin-2-yl)oxy)methyl)-5-fluorobenzonitrile]	42 nM
Cc1cc(C(=O)N2CCN(c3nc4nc(Cl)ccc4o3)CC2)cnc1OCC1CCCO1 (centres unmarked) [Example 166, (4-(5-chlorooxazolo[4,5-b]pyridin-2-yl)piperazin-1-yl)(5-methyl-6-((tetrahydrofuran-2-yl)methoxy)pyridin-3-yl)methanone]	475 nM
Cc1ccc2oc(N3CCN(C(=O)c4cnc(OCC5(C(F)(F)F)CC5)c(C)n4)CC3)nc2n1 [Example 167, [4-(5-methyloxazolo[4,5-b]pyridin-2-yl)piperazin-1-yl]-[6-methyl-5-[[1-(trifluoromethyl)cyclopropyl]methoxy]pyrazin-2-yl]methanone]	63 nM

From patent US20220135591A1, “HETEROCYCLIC COMPOUNDS AS INHIBITORS OF MONOACYLGLYCEROL LIPASE (MAGL)” (Hoffmann-La Roche Inc., priority 2019, published 2022)
